According to ChEMBL document CHEMBL1201862, “PubChem BioAssay data set” (2004):
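Method: 48-hour compound exposure of cells in 96-well plates, five concentrations, linear interpolation of endpoints. Abbreviation: GI50, concentration required for 50% inhibition of growth.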 The source made the active and inactive calls. Rule as the data show it: active = GI50 up to about 1.1 µM and inactive = higher.

Columns and labels:
Experiment in all cases: NCI-60 cell line screen, 48 h
MCF7 = system: MCF7
TK-10 = system: TK-10
OVCAR-5 = system: OVCAR-5
HOP-92 = system: HOP-92
SN12C = system: SN12C
SNB-75 = system: SNB-75
Malme-3M = system: Malme-3M
K562 = system: K562
CCRF-CEM = system: CCRF-CEM
NCI-H522 = system: NCI-H522
HL-60 = system: HL-60
SW-620 = system: SW-620
BT-549 = system: BT-549
COLO 205 = system: COLO 205
SK-MEL-5 = system: SK-MEL-5
ACHN = system: ACHN
EKVX = system: EKVX
M14 = system: M14
MDA-MB-435 = system: MDA-MB-435
SK-MEL-2 = system: SK-MEL-2

SMILES | GI50 (MCF7) | GI50 (TK-10) | GI50 (OVCAR-5) | GI50 (HOP-92) | GI50 (SN12C) | GI50 (SNB-75) | GI50 (Malme-3M) | GI50 (K562) | GI50 (CCRF-CEM) | GI50 (NCI-H522) | GI50 (HL-60) | GI50 (SW-620) | GI50 (BT-549) | GI50 (COLO 205) | GI50 (SK-MEL-5) | GI50 (ACHN) | GI50 (EKVX) | GI50 (M14) | GI50 (MDA-MB-435) | GI50 (SK-MEL-2)
CC(CC(C)(C)[N+](C)(C)C)[N+](C)(C)C (centres undefined) | > 100 µM (inactive) | > 100 µM (inactive) | > 100 µM (inactive) | > 100 µM (inactive) | > 100 µM (inactive) | 88.9 µM (inactive) | > 10 µM (inactive) | > 100 µM (inactive) | > 100 µM (inactive) | > 100 µM (inactive) | > 100 µM (inactive) | > 100 µM (inactive) | > 100 µM (inactive) | > 100 µM (inactive) | > 100 µM (inactive) | > 100 µM (inactive) | > 100 µM (inactive) | > 100 µM (inactive) |  | 
c1cc(C[S+]2CCCC2)oc1C[S+]1CCCC1 |  | > 100 µM (inactive) |  |  | > 100 µM (inactive) | > 100 µM (inactive) | > 100 µM (inactive) | > 100 µM (inactive) | > 100 µM (inactive) | > 100 µM (inactive) |  | > 100 µM (inactive) | > 100 µM (inactive) | > 100 µM (inactive) | > 100 µM (inactive) | > 100 µM (inactive) | > 100 µM (inactive) | > 100 µM (inactive) | > 100 µM (inactive) | 
CO[C@H]1[C@@H](O)[C@@H](O)O[C@@H](O[C@H]2CC[C@@]3(C)[C@H](CC[C@@H]4[C@@H]3[C@H](O)C[C@]3(C)[C@@H](C5=CC(=O)OC5)CC[C@]43O)C2)[C@@H]1O |  | 0.187 µM (active) | 0.601 µM (active) | 0.531 µM (active) | 0.064 µM (active) | 0.354 µM (active) | 0.198 µM (active) | 0.175 µM (active) | 0.23 µM (active) | 0.0239 µM (active) | 0.191 µM (active) | 0.257 µM (active) | 0.151 µM (active) | 0.441 µM (active) | 0.136 µM (active) | 0.0471 µM (active) | 0.151 µM (active) | 0.283 µM (active) | 0.28 µM (active) | 0.299 µM (active)
O=c1cc(N2CCN(c3cc(=O)n4ccccc4n3)CC2)oc2ccccc12 | > 70.5 µM (inactive) | > 100 µM (inactive) | > 100 µM (inactive) | 72.4 µM (inactive) | > 92.7 µM (inactive) | 9.06 µM (inactive) | > 100 µM (inactive) | 47.1 µM (inactive) | 6.7 µM (inactive) | 29.8 µM (inactive) |  | 29.7 µM (inactive) | 68.1 µM (inactive) | 61 µM (inactive) | 65.9 µM (inactive) | > 100 µM (inactive) | 31.2 µM (inactive) | 34.7 µM (inactive) | 55 µM (inactive) | > 100 µM (inactive)
OCC1c2ccccc2-n2nc(-c3ccccc3)c(O)c21 (centres undefined) | 14.4 µM (inactive) | 19.9 µM (inactive) | > 100 µM (inactive) | 16.9 µM (inactive) | 17.6 µM (inactive) | 68.9 µM (inactive) | 17.1 µM (inactive) | 21.4 µM (inactive) | 28.6 µM (inactive) | 22.1 µM (inactive) |  | 29.3 µM (inactive) | 20 µM (inactive) | 13.5 µM (inactive) | 33.3 µM (inactive) | 16.8 µM (inactive) | 29.2 µM (inactive) |  | 26.2 µM (inactive) | 15.9 µM (inactive)
CC(C)(C)C(=O)O[C@H]1C=C[C@@H](O)[C@@H]2[C@H]1[C@@H]1C=C[C@H]2C1 | 7.18 µM (inactive) | 26.4 µM (inactive) | 1.96 µM (inactive) | 22.2 µM (inactive) | 16.6 µM (inactive) | 29.9 µM (inactive) | > 10 µM (inactive) | 31.9 µM (inactive) | 9.35 µM (inactive) | 17.4 µM (inactive) | 4.15 µM (inactive) | 42.7 µM (inactive) | 3.87 µM (inactive) | 6.03 µM (inactive) |  | 45.4 µM (inactive) | 6.01 µM (inactive) | 13.7 µM (inactive) |  | 13 µM (inactive)
COC(=O)c1cc(OCc2cc(OCc3ccc(Br)cc3)cc(OCc3ccc(Br)cc3)c2)cc(OCc2cc(OCc3ccc(Br)cc3)cc(OCc3ccc(Br)cc3)c2)c1 | > 100 µM (inactive) | > 100 µM (inactive) | > 100 µM (inactive) | > 100 µM (inactive) | > 100 µM (inactive) | > 100 µM (inactive) | > 100 µM (inactive) | > 100 µM (inactive) |  | > 100 µM (inactive) |  |  | > 100 µM (inactive) | > 100 µM (inactive) | > 100 µM (inactive) | > 100 µM (inactive) | > 100 µM (inactive) | > 100 µM (inactive) | > 100 µM (inactive) | > 100 µM (inactive)
COc1ccccc1N/C(SCc1ccccc1)=C(/C(Cl)=C(Cl)Cl)[N+](=O)[O-] | 25.9 µM (inactive) |  | 33.3 µM (inactive) |  | 20.3 µM (inactive) | 31.8 µM (inactive) | 17.4 µM (inactive) | 19.8 µM (inactive) | 23.6 µM (inactive) |  |  | 17.8 µM (inactive) | 15.1 µM (inactive) | 19.5 µM (inactive) |  | 32.1 µM (inactive) | 32 µM (inactive) | 27 µM (inactive) | 17.3 µM (inactive) | 29.6 µM (inactive)
